Measurements: US12528777B2, “Quinazolinones derivatives for treatment of non-alcoholic fatty liver disease, preparation and use thereof” (Council of Scientific and Industrial Research, priority 2020, dated 2026)

These compounds were tested on ATGL (assay: Western blot of ATGL level in HepG2 cells). Details: HepG2 cells, western blot, score.
Type: cell-based
Set-up: key to Increase in ATGL level: + = slight or in insignificant; ++ = Moderate; +++ and ++++ = active; +++ and ++++ = active; +++++ = very active
Description: To select the compounds capable of inhibiting the ubiquitination of ATGL by COP1 by targeting the VP motif, confocal microscopy was performed with the provided molecules. If the compound was effective in inhibiting the interaction, there would be a reduction in the number of fat droplets in the cells after treatment. […] With this rationale in mind, HepG2 cells were induced to accumulate lipid droplets after treatment with 250 µM of oleate and 10 μM of the specific compounds were added. The potential of the compounds to bring about a reduction in the number of fat droplets was then checked by comparison with oleate induced cells by counting number of droplets of approximately 20 cells from each treatment and calculating the average number of lipid droplets of each cell. The selected compounds were then subjected to dose dependent treatments and the ones which could maintain its potency to reduce fat droplets at lower doses were then selected for western blot analysis. The compound which could reduce the number of fat droplets in the cells are expected to raise the levels of ATGL since they are likely to deter COP1 from ubiquitinating ATGL. This increase will be visible only in the protein level and gene expression is likely to remain unchanged since ubiquitination is a […] modification. Thus, western blot was performed to check ATGL levels in the cells with the selected molecules.
HepG2 cells were treated with the compounds 9, 10, 11, 17, 18, 23, 24, 115, 123, 127, 139,107, 171, 179, 73, 187, 211, 215, 219, 223, 232, 238, 241, 244, 258, 299, 308, and 333a, (10 μM for initial screening and 50 nM, 100 nM, 200 nM, 500 nM, 1 μM and 5 μM for dose dependent assays) for 24 hours. After removing media from the cells, the wells were washed with 1×PBS twice to remove any remnant media. Cells were then lysed in lysis buffer containing 50 mM Tris-HCl (pH 7.4), 100 mM NaCl, 1 mM EDTA, 1 mM EGTA, 1% Triton X-100 and protease inhibitor cocktail (Millipore, Billierica, MA, USA). Following centrifugation at 20,000 g for 20 minutes, the protein solution was extracted from the cells. Protein was estimated using Bradford assay. Bradford's reagent (BioRad) was diluted in 1:4 ratio in double distilled water. 2 μl of protein sample was added to 100 μl of the reagent and absorbance was measured at 595 nm. […] of protein was diluted in lysis buffer. 1× loading buffer diluted from 5× stock containing 250 mM Tris-HCl (pH 6.8), 10% SDS, 50% glycerol, 0.1% bromophenol Blue and 10% β-mercaptoethanol was added. The protein samples were then heated at 95° C. for 10 minutes, cooled and centrifuged at 12,000 g for 2 minutes prior to loading.
For western blotting, the proteins were resolved in 10% SDS PAGE (discontinuous buffer system). 1× running buffer containing SDS, Tris Base and Glycine was used to run the gel at 80V for approximately 2 hours. Transfer was done using PVDF membrane (Millipore) having pore size of 0.45 μm. 1× transfer buffer containing Tris-Base, Glycine and 20% methanol was used for wet transfer. Transfer was done at 90V for 3 hours. Following transfer, the PVDF membrane containing the proteins were washed in 1×PBST comprising of 1×PBS and 1% Tween 20 (Sigma Aldrich). The membrane was then incubated for 1 hour at room temperature in 5% skim milk powder to block the non-specific sites. Following multiple washes with 1×PBST to wash away any remaining blocking buffer, the required primary antibody (COP1 [Bethyl Laboraties], ATGL [Cell Signalling Technology] or Actin[Cell Signalling Technology]) prepared with 1×PBST, 1% Bovine Serum Albumin and 0.04% Sodium Azide was added to the membrane and incubated overnight at 4° C. The next day, the membrane was again washed multiple times with 1×PBST to remove any unbound primary antibody. The membrane was then incubated with goat anti-rabbit secondary antibody (Genei) for 1 hour at room temperature and washed again for multiple times with 1×PBST. […]

| SMILES | Increase in ATGL level |
| --- | --- |
| COCCn1cnc2ccc(NC(=O)Nc3cccc(CNC(C)=O)c3)cc2c1=O [Compound 25, N-(3-(3-(3-(2-methoxyethyl)-4-oxo-3,4-dihydroquinazolin-6-yl)ureido)benzyl)acetamide] | + |
| COCCn1cnc2ccc(NC(=O)Nc3ccc(C(F)(F)F)cc3)cc2c1=O [Compound 38, 1-(3-(2-methoxyethyl)-4-oxo-3,4-dihydroquinazolin-6-yl)-3-(4-(trifluoromethyl)phenyl)urea] | ++ |
| COCCn1cnc2ccc(NC(=O)Nc3ccccc3C(F)(F)F)cc2c1=O [Compound 39, 1-(3-(2-methoxyethyl)-4-oxo-3,4-dihydroquinazolin-6-yl)-3-(2-(trifluoromethyl)phenyl)urea] | ++ |
| COCCn1cnc2ccc(NC(=O)Nc3cccc(C(C)=O)c3)c(-c3ccc(F)cc3)c2c1=O [Compound 47, 1-(3-acetylphenyl)-3-(5-(4-fluorophenyl)-3-(2-methoxyethyl)-4-oxo-3,4-dihydroquinazolin-6-yl)urea] | +++ |
| COCCn1cnc2ccc(NC(=O)Nc3cccc(C(C)=O)c3)c(C3=CCN(C(=O)OC(C)(C)C)CC3)c2c1=O [Compound 59, tert-butyl 4-(6-(3-(3-acetylphenyl)ureido)-3-(2-methoxyethyl)-4-oxo-3,4-dihydroquinazolin-5-yl)-5,6-dihydropyridine-1 (2H)-carboxylate] | + |
| COCCn1cnc2ccc(NC(=O)Nc3cccc(C(C)=O)c3)c(C3=CCNCC3)c2c1=O [Compound 60, 1-(3-acetylphenyl)-3-(3-(2-methoxyethyl)-4-oxo-5-(1,2,3,6-tetrahydropyridin-4-yl)-3,4-dihydroquinazolin-6-yl)urea] | + |
| COCCn1cnc2ccc(NC(=O)Nc3cccc(C(C)=O)c3)c(C3CCN(C(=O)OC(C)(C)C)CC3)c2c1=O [Compound 61, tert-butyl 4-(6-(3-(3-acetylphenyl)ureido)-3-(2-methoxyethyl)-4-oxo-3,4-dihydroquinazolin-5-yl)piperidine-1-carboxylate] | + |
| COCCn1cnc2ccc(NC(=O)Nc3cccc(C(C)=O)c3)c(C3CCNCC3)c2c1=O [Compound 62, 1-(3-acetylphenyl)-3-(3-(2-methoxyethyl)-4-oxo-5-(piperidin-4-yl)-3,4-dihydroquinazolin-6-yl)urea] | +++ |
| COCCn1cnc2ccc(NC(=O)Nc3cccc(C(C)=O)c3)c(-c3ccc(OC)cc3)c2c1=O [Compound 64, 1-(3-acetylphenyl)-3-(3-(2-methoxyethyl)-5-(4-methoxyphenyl)-4-oxo-3,4-dihydroquinazolin-6-yl)urea] | + |
| COCCn1cnc2ccc(NC(=O)Nc3cccc(C(C)=O)c3)c(-c3ccc(C(F)(F)F)cc3)c2c1=O [Compound 66, 1-(3-acetylphenyl)-3-(3-(2-methoxyethyl)-4-oxo-5-(4-(trifluoromethyl)phenyl)-3,4-dihydroquinazolin-6-yl)urea] | ++ |
| COc1ccccc1-n1cnc2ccc(NC(=O)Nc3cccc(C(C)=O)c3)cc2c1=O [Compound 131, 1-(3-acetylphenyl)-3-(3-(2-methoxyphenyl)-4-oxo-3,4-dihydroquinazolin-6-yl)urea] | + |
| CC(=O)c1cccc(NC(=O)Nc2ccc3ncn(CCOC(C)C)c(=O)c3c2)c1 [Compound 183, 1-(3-acetylphenyl)-3-(3-(2-isopropoxyethyl)-4-oxo-3,4-dihydroquinazolin-6-yl)urea] | +++ |
| CC(=O)c1cccc(NC(=O)Nc2ccc3ncn(C4CCCCC4)c(=O)c3c2)c1 [Compound 187, 1-(3-acetylphenyl)-3-(3-cyclohexyl-4-oxo-3,4-dihydroquinazolin-6-yl)urea] | +++ |
| COCCn1c(CN2CCCC2)nc2ccc(NC(=O)Nc3cccc(C(C)=O)c3)cc2c1=O [Compound 232, 1-(3-acetylphenyl)-3-(3-(2-methoxyethyl)-4-oxo-2-(pyrrolidin-1-ylmethyl)-3,4-dihydroquinazolin-6-yl)urea] | +++ |
| CC(=O)c1cccc(NC(=O)Nc2ccc3ncn(CC(=O)Nc4ccccc4Br)c(=O)c3c2)c1 [Compound 259, 2-(6-(3-(3-acetylphenyl)ureido)-4-oxoquinazolin-3 (4H)-yl)-N-(2-bromophenyl)acetamide] | +++ |
| CCC(COC)n1c(C)nc2ccc(NC(=O)Nc3cccc(C(C)=O)c3)cc2c1=O (stereo not drawn) [Compound 281, 1-(3-acetylphenyl)-3-(3-(1-methoxybutan-2-yl)-2-methyl-4-oxo-3,4-dihydroquinazolin-6-yl)ureae] | ++ |
| COCC(C)n1c(C)nc2ccc(NC(=O)Nc3cccc(C(C)=O)c3)cc2c1=O (stereo not drawn) [Compound 285, 1-(3-acetylphenyl)-3-(3-(1-methoxypropan-2-yl)-2-methyl-4-oxo-3,4-dihydroquinazolin-6-yl)urea] | + |
| CC(=O)c1cccc(NC(=O)Nc2ccc3ncn(N4CCOCC4)c(=O)c3c2)c1 [Compound 340, 1-(3-acetylphenyl)-3-(3-morpholino-4-oxo-3,4-dihydroquinazolin-6-yl)urea] | + |
| COCCn1c(C)nc2ccc(NC(=O)Nc3cccc(C(C)=O)c3)c(Br)c2c1=O [Compound 345, 1-(3-acetylphenyl)-3-(5-bromo-3-(2-methoxyethyl)-2-methyl-4-oxo-3,4-dihydroquinazolin-6-yl)urea] | + |

Same assay, conditions: fold increase of ATGL by densitometry, as % of 1.6 fold maximum with siCOP1; doses 10-5000 nM; read-out: EC50 (in-vitro)

| EC50 [nM] | SMILES |
| --- | --- |
| 10.8 | COCCn1c(C2CCCC2)nc2ccc(NC(=O)Nc3cccc(C(C)=O)c3)cc2c1=O [Compound 127, 1-(3-acetylphenyl)-3-(2-cyclopentyl-3-(2-methoxyethyl)-4-oxo-3,4-dihydroquinazolin-6-yl)urea] |
| 70.3 | COCCn1c(-c2cnccn2)nc2ccc(NC(=O)Nc3cccc(C(C)=O)c3)cc2c1=O [Compound 223, 1-(3-acetylphenyl)-3-(3-(2-methoxyethyl)-4-oxo-2-(pyrazin-2-yl)-3,4-dihydroquinazolin-6-yl)urea] |
| 434 | COCCn1c(CN2CCCC2)nc2ccc(NC(=O)Nc3cccc(C(C)=O)c3)cc2c1=O [Compound 232, 1-(3-acetylphenyl)-3-(3-(2-methoxyethyl)-4-oxo-2-(pyrrolidin-1-ylmethyl)-3,4-dihydroquinazolin-6-yl)urea] |
| 290 | COCCn1c(C2CCN(C(=O)OC(C)(C)C)CC2)nc2ccc(NC(=O)Nc3cccc(C(C)=O)c3)cc2c1=O [Compound 299, tert-butyl 4-(6-(3-(3-acetylphenyl)ureido)-3-(2-methoxyethyl)-4-oxo-3,4-dihydroquinazolin-2-yl)piperidine-1-carboxylate] |

Same assay, conditions: western blot, 24 hours, 10 μM screening or 50 nM-5 μM dose dependent

| SMILES | ATGL level in HepG2 cells |
| --- | --- |
| COCCn1c(C2CCCC2)nc2ccc(NC(=O)Nc3cccc(C(C)=O)c3)cc2c1=O [Compound 127, 1-(3-acetylphenyl)-3-(2-cyclopentyl-3-(2-methoxyethyl)-4-oxo-3,4-dihydroquinazolin-6-yl)urea] | increased ATGL level |
| COCCn1c(-c2cnccn2)nc2ccc(NC(=O)Nc3cccc(C(C)=O)c3)cc2c1=O [Compound 223, 1-(3-acetylphenyl)-3-(3-(2-methoxyethyl)-4-oxo-2-(pyrazin-2-yl)-3,4-dihydroquinazolin-6-yl)urea] | increased ATGL level |
| COCCn1c(CN2CCCC2)nc2ccc(NC(=O)Nc3cccc(C(C)=O)c3)cc2c1=O [Compound 232, 1-(3-acetylphenyl)-3-(3-(2-methoxyethyl)-4-oxo-2-(pyrrolidin-1-ylmethyl)-3,4-dihydroquinazolin-6-yl)urea] | increased ATGL level |
| COCCn1c(CN2CCN(C)CC2)nc2ccc(NC(=O)Nc3cccc(C(C)=O)c3)cc2c1=O [Compound 244, 1-(3-acetylphenyl)-3-(3-(2-methoxyethyl)-2-((4-methylpiperazin-1-yl)methyl)-4-oxo-3,4-dihydroquinazolin-6-yl)urea] | increased ATGL level |
| COCCn1c(C2CCN(C(=O)OC(C)(C)C)CC2)nc2ccc(NC(=O)Nc3cccc(C(C)=O)c3)cc2c1=O [Compound 299, tert-butyl 4-(6-(3-(3-acetylphenyl)ureido)-3-(2-methoxyethyl)-4-oxo-3,4-dihydroquinazolin-2-yl)piperidine-1-carboxylate] | increased ATGL level |
| COCCn1cnc2ccc(NC(=O)N(O)c3cccc(C(C)=O)c3)cc2c1=O [Compound 308, 1-(3-acetylphenyl)-1-hydroxy-3-(3-(2-methoxyethyl)-4-oxo-3,4-dihydroquinazolin-6-yl)urea] | increased ATGL level |
| COCCn1c(C(=O)N2CCN(C)CC2)nc2ccc(NC(=O)Nc3cccc(C(C)=O)c3)cc2c1=O [Compound 333a, 1-(3-acetylphenyl)-3-(3-(2-methoxyethyl)-2-(4-methylpiperazine-1-carbonyl)-4-oxo-3,4-dihydroquinazolin-6-yl)urea] | increased ATGL level |
